Here are results for nine compounds from article PMC9964390, “Design, Synthesis and Phenotypic Profiling of Simplified Gedatolisib Analogues” (Pharmaceuticals, 2023).

Values after ≈ are worked out from the molar mass of the structure shown. Read-outs that look alike come from different tables or passages of the source.

A short description of data set [1]: pH-dependent aqueous solubility (UV spectrophotometry). In kind it is physicochemical. The following applies: aqueous buffer, thermodynamic from solid, 37 °C. The method, then:
A stock solution of the target compound was prepared by dissolving 1 mg in methanol, and the wavelength of greatest absorption of each compound was obtained by scanning between wavelengths from 200 nm to 500 nm. Six dilutions were prepared from the stock solution and the absorbance reading in the UV spectrophotometer (SpectraMax M5, Molecular Devices, USA). The calibration curve with linear regression was created with the values obtained, and the solubility test was measured by correlating the concentration with the absorbance obtained by ultraviolet. Each compound was added in excess at phosphate buffer solution pH 5.8 and 7.4 to obtain a supersaturated solution that was kept under stirring for 4 h at 37 °C and then was filtered through a 0.45 µm filter for reading at the corresponding wavelengths. The solubility was determined through the equation of the straight line obtained by the linear regression of the calibration curve of the compounds [24, 25].

In data set [2] the test system is PC-3, MCF7, K562, CCRF-CEM and MOLT-4. The data set can be described thus: MTT single-concentration cytotoxicity screening. The class given is cell-based, human. Conditions: for solubility in the culture medium: during screening at 30 μM; for cytotoxic activity at screening concentration: single concentration 1 μM; for cytotoxic effect on leukemia cell lines at single concentration: single concentration 30 μM, reduction in cell viability ≥ 50% selected for CC50. The method, then:
In a first approach, the assay was validated with two standard drugs: gedatolisib and GSK-1059615.
After understanding the response profile of the selected cell lines to the treatment with gedatolisib and GSK-1059615, we investigated the cytotoxic activity of compounds 5a-f at a single concentration (30 μM). […] During the experiments, compounds 5a (LASSBio-2250), 5b (LASSBio-2251) and 9 (CAS-942789959) were insoluble and precipitated on the culture medium. Therefore, they were evaluated also at the screening concentration of 1 μM.
(§1) Cell viability was assessed by the MTT assay. The lines selected for this study were plated according to their respective densities, which ranged from 3 × 10^4 to 4 × 10^4 cells per well. Subsequently, they were treated with test compounds at different concentrations (0.00003 μM to 150 μM), gedatolisib and GSK-1059615.
(§2) After incubation, the plates are centrifuged at 440× g for 10 min. Then, 110 μL of the supernatant was withdrawn and each well received 10μL of the MTT solution. The plate was again incubated in an oven at 37 °C and 5% CO2 for 3 to 4 h. At the end of the incubation time, 100 μL of SDS-HCL detergent was added to solubilize the formazan crystals. The plate was shaken on an automatic overnight shaker and then read at a wavelength of 595 nm on the Molecular Devices Spectramax M5 plate reader.

In another data set the test system is K562. The data set can be described thus: MTT cell viability assay. The class given is cell-based. Conditions: Homo sapiens, K562, 72 h MTT; for CC50: 95% confidence interval in brackets; for Emax: read-out: Emax (maximum effect at maximum concentration used). The method, then:
(§3) For the evaluation of cellular cytotoxicity in cancer cell lines, the compounds were tested at concentrations ranging from 0.00003 μM to 150 μM. Immortalized cancer cells were selected: PC-3 (PTEN-mutated prostate adenocarcinoma), MCF-7 (PI3KCA-mutated breast carcinoma), K562 (P53-mutated chronic myeloid leukemia), CCRF-CEM (acute lymphoblastic leukemia with mutation in PTEN) and MOLT-4 (acute lymphoblastic leukemia with mutation in PI3KR1/PTEN). Peripheral blood mononuclear cells (PBMCs) were used to determine the cytotoxic selectivity index (SI). All immortalized cells were cultured in RPMI 1640 medium with 10% (v/v) FBS, streptomycin + penicillin, at 37 °C in a humidified incubator containing 5% CO2.
as §1, §2
For orientation: Tetrazolium assays rely on reduction of a dye to a coloured formazan, in cell work by metabolically active cells.

The subject of another data set is MCF7. The data set can be described thus: MTT cell viability assay. In kind it is cell-based. Conditions: Homo sapiens, MCF7, 72 h MTT; for CC50: 95% confidence interval in brackets; for Emax: read-out: Emax (maximum effect at maximum concentration used). The method, then:
as §3, §1, §2

The next data set has as its system PC-3. The data set can be described thus: MTT cell viability assay. The class given is cell-based. Conditions: Homo sapiens, PC-3, 72 h MTT; for CC50: 95% confidence interval in brackets; for Emax: read-out: Emax (maximum effect at maximum concentration used). The method, then:
as §3, §1, §2

Another data set deals with CCRF-CEM. The data set can be described thus: MTT cell viability assay. The following applies: Homo sapiens, 72 h MTT; for CC50: 95% confidence interval in brackets; for Emax: read-out: Emax (maximum effect at maximum concentration used). In kind it is cell-based, human. The method, then: as §3, §1, §2
The subject of another data set is MOLT-4. The data set can be described thus: MTT cell viability assay. In kind it is cell-based, human. Conditions: Homo sapiens, MOLT-4, 72 h MTT; for CC50: 95% confidence interval in brackets; for Emax: read-out: Emax (maximum effect at maximum concentration used). The method, then:
as §3, §1, §2

The subject of a further data set is CCRF-CEM cell line. The data set can be described thus: Muse Cell Cycle Kit. In kind it is cell-based, human. The following applies: 48 h. The method, then:
The Guava Muse Luminex® Cell Cycle Kit (catalog n^o MCH100106, Luminex) contains the DNA marker propidium iodide (PI) and RNAse A to avoid nonspecific labelling.
After 48 h of incubation in an incubator at 37 °C with 5% CO2, 1 mL of the MOLT-4 cell solution and 500 µL of the CCRF-CEM cell solution, contained in the wells, were transferred to Eppendorf tubes and centrifuged at 300× g for 5 min. The volumes used ensured that the cell density remained within the recommended range (1 × 10^6 to 4 × 10^6 cells/mL) at the end of the 48 h incubation period.
The supernatant was discarded, and the pellet formed was resuspended in 1 mL of saline PBS, homogenised, and centrifuged at 300× g for 5 min. The formed pellet was resuspended in residual PBS by homogenization. To fix cellular events, 1 mL of ice-cold 70% alcohol was added dropwise into the tubes and vortexed at medium speed. The samples were incubated, before staining, for at least 3 h at −20 °C.
At the end of the incubation time at −20 °C, the samples were centrifuged at 300× g for 5 min, and then the supernatant was discarded and resuspended in 250 µL of PBS. The samples were again centrifuged at 300× g for 5 min and the supernatant discarded, which constituted the washing step. The pellet formed was resuspended in 200 µL of the Guava Muse Luminex® Cell Cycle, and the tubes were incubated for 30 min at room temperature, away from light.
After incubation, the samples were read in Guava Muse Luminex®, and the data with the histograms generated, which contain information on the percentage of the different phases of the cell cycle, were analysed in the statistical program Prism6. This methodology was performed in duplicate of three independent experiments.

[3] abbreviates: phosphate buffer pH 5.8 (duodenum), read-out: Solubility pH 5.8.
The mark [4] stands for this setting: phosphate buffer pH 7.4 (plasma), read-out: Solubility pH 7.4.

For `c1ccc(N2CCN(c3nc(N4CCCCC4)nc(N4CCOCC4)n3)CC2)cc1` [5b, 4-(4-(4-Phenylpiperazin-1-yl)-6-(piperidin-1-yl)-1,3,5-triazin-2-yl)morpholine], the solubility at 4 h in [1] (setting [3]) is 2.84 µM (≈ 1.16 µg/mL). The solubility at 4 h in data set [1] (setting [4]) was found to be 0.51 µM (≈ 0.209 µg/mL). In data set [2], the “solubility in the culture medium” value is given as “insoluble” and the “cytotoxic activity at screening concentration” value (shortened to “cytotoxic activity”) was “inactive”.
As for `c1ccc(N2CCN(c3nc(N4CCOCC4)nc(N4CCSCC4)n3)CC2)cc1` [5a, 4-(4-(4-Phenylpiperazin-1-yl)-6-thiomorpholino-1,3,5-triazin-2-yl)morpholine], the melting point was found to be 170 °C. Further, the solubility at 4 h in data set [1] (setting [3]) came to 0.52 µM (≈ 0.222 µg/mL). In data set [1] (setting [4]), the solubility at 4 h turned out to be 2.88 µM (≈ 1.23 µg/mL). In data set [2], the “solubility in the culture medium” value was “insoluble” and the “cytotoxic activity” value was “inactive”.
Compound `OCCN1CCN(c2nc(N3CCOCC3)nc(N3CCN(c4ccccc4)CC3)n2)CC1` [5e, 2-(4-(4-Morpholino-6-(4-phenylpiperazin-1-yl)-1,3,5-triazin-2-yl)piperazin-1-yl)ethan-1-ol] had a melting point of 92 °C. Further, the solubility at 4 h in data set [1] (setting [3]) came out at 31.2 µM (≈ 14.2 µg/mL). In addition, the solubility at 4 h in [1] (setting [4]) worked out at 49.1 µM (≈ 22.3 µg/mL).
`CN1CCN(c2nc(N3CCOCC3)nc(N3CCN(c4ccccc4)CC3)n2)CC1` [5d, 4-(4-(4-Methylpiperazin-1-yl)-6-(4-phenylpiperazin-1-yl)-1,3,5-triazin-2-yl)morpholine]: the melting point was 135 °C. Moreover, the solubility at 4 h in data set [1] (setting [3]) is 30.7 µM (≈ 13 µg/mL). The solubility at 4 h in data set [1] (setting [4]) was found to be 50.9 µM (≈ 21.6 µg/mL). Further, in the data set on K562, half-maximal cytotoxicity (CC50) was put at 50.2 µM and the Emax was 80%. For the same compound, in the data set with MCF7, the CC50 is above 100 µM and the Emax turned out to be 77%. Besides, in the data set with PC-3, half-maximal cytotoxicity (CC50) was put at 91.3 µM and the Emax was 72%. In the data set on CCRF-CEM, the midpoint of cytotoxicity, the CC50, lay at 66.5 µM and the Emax turned out to be 95%. For the same compound, in the data set on MOLT-4, the CC50 amounted to 64.1 µM and the Emax came to 91%. Besides, the “cytotoxic effect on leukemia cell lines at single concentration” value in data set [2] is recorded as “cytotoxic effect”.
On to `COc1cccc2c1C(=O)c1c(O)c3c(c(O)c1C2=O)C[C@@](O)(C(=O)CO)C[C@@H]3O[C@H]1C[C@H](N)[C@H](O)[C@H](C)O1` [doxorubicin], for which the “action on the cell cycle” value in the data set with CCRF-CEM cell line (0.5 µM) is “nonspecific action on the cell cycle”.
Turning to `CC[C@]1(O)C[C@H]2CN(CCc3c([nH]c4ccccc34)[C@@](C(=O)OC)(c3cc4c(cc3OC)N(C=O)[C@H]3[C@@](O)(C(=O)OC)[C@H](OC(C)=O)[C@]5(CC)C=CCN6CC[C@]43[C@@H]65)C2)C1` [Vincristine, vincristine], the “action on the cell cycle” value in the data set on CCRF-CEM cell line (5 µM) is reported as “increased arrest in the G2/M phase”.
Consider `c1ccc(N2CCN(c3nc(N4CCNCC4)nc(N4CCOCC4)n3)CC2)cc1` [5c], for which the solubility at 4 h in data set [1] (setting [3]) was found to be 43.4 µM (≈ 17.8 µg/mL); in [1] (setting [4]) it was 59.1 µM (≈ 24.3 µg/mL). In addition, the CC50 with K562 was 25.6 µM; with MCF7, above 100 µM; in the data set on PC-3, 92.3 µM; in the data set on CCRF-CEM it was 37.3 µM; in the data set with MOLT-4, 31.8 µM. Also, the Emax is 85% in the data set on K562; 57% in the data set with MCF7; 58% in the data set on PC-3; 94% in the data set on CCRF-CEM; 93% with MOLT-4. The “cytotoxic effect on leukemia cell lines at single concentration” value in data set [2] is “cytotoxic effect”.
Turning to `c1ccc(N2CCN(c3nc(N4CCOCC4)nc(N4CCOCC4)n3)CC2)cc1` [compound 9, reference compound], in [1] (setting [3]), the solubility at 4 h was determined as 3.92 µM (≈ 1.61 µg/mL). Besides, the solubility at 4 h in data set [1] (setting [4]) stood at 6.03 µM (≈ 2.48 µg/mL). Moreover, in data set [2], the “solubility in the culture medium” value is “insoluble” and the “cytotoxic activity” value was “inactive”.
In the case of `O=C1NC(=O)/C(=C/c2ccc3nccc(-c4ccncc4)c3c2)S1` [GSK-1059615, reference compound], the CC50 with K562 turned out to be 1.82 µM; in the data set with MCF7, 0.55 µM; in the data set on PC-3 it was 6.78 µM; with CCRF-CEM, 0.43 µM; with MOLT-4, 0.63 µM. Also, the Emax in the data set with K562 came to 84%; in the data set on MCF7, 80%; in the data set with PC-3, 67%; with CCRF-CEM it was 93%; in the data set with MOLT-4, 92%.

The term solubility denotes the dissolved amount per volume that the medium holds. The melting point is the temperature of the solid-liquid transition. A word on the CC50: it is the concentration giving 50% cytotoxicity.
